Source: patent US10683326B2, “Crystalline salt forms” (Stealth BioTherapeutics Corp., priority 2016, dated 2020)
Counter-ions that a name gives are not always drawn. Where a SMILES comes first, the peptide text is derived from it. [ ]: non-standard residue; d: D form. Dmt = Cc1cc(O)cc(C)c1C[C@H](N)C(=O)O

Experiments:
[1] = counterion acid; cited from earlier work
[2] = counterion acid; cited from earlier work; remark: listed apart in the source
[3] = Salt disproportionation studies (slurry in deionized water, pH and XRPD); format: physicochemical; details: 20° C.
Procedure: The scaled-up tosylate and fumarate salts were subjected to salt disproportionation studies at ambient temperature. The following observations and results were obtained during these disproportionation studies: • After stirring the tosylate salt at 20° C. in deionized water for 30 min, pH=2.58.

[4] = 7-day stability testing (40° C./75% RH, 80° C., ambient temperature and light), XRPD and HPLC; format: physicochemical; details: 7 days
Procedure: Approximately 30 mg of the tosylate and fumarate salts were subjected to 7-day stability testing under the following conditions: • 40° C./75% RH • 80° C. • Ambient temperature and light After 7 days under the stated conditions, XRPD and HPLC analysis was carried out on the resultant solid material. Salt Disproportionation Studies
Approximately 30 mg of the tosylate and fumarate salts were subjected to 7-day stability testing under the following conditions: • 40° C./75% RH • 80° C. • Ambient temperature and light • After 7 days under the stated conditions, XRPD and HPLC analysis was carried out on the resultant solid material. Hydration Studies
The scaled-up tosylate and fumarate salts were subjected to 7-day stability testing at 40° C./75% RH, 80° C. and ambient temperature and light.

[5] = Dynamic Vapor Sorption (DVS); format: physicochemical; details: for change in mass (DVS): between 20-90% RH
Procedure: Approximately 10 mg of sample was placed into a mesh vapor sorption balance pan and loaded into a DVS-1 dynamic vapor sorption balance by Surface Measurement Systems. The sample was subjected to a ramping profile from 40-90% relative humidity (RH) at 10% increments, maintaining the sample at each step until a stable weight had been achieved (99.5% step completion). After completion of the sorption cycle, the sample was dried using the same procedure to 0% RH and then a second sorption cycle back to 40% RH. The weight changes during the sorption/desorption cycles were plotted, allowing the hygroscopic nature of the sample to be determined. XRPD analysis was then carried out on the remaining solid.

[6] = Hydration studies in IPA/water at 3 water activities, XRPD; format: physicochemical
physchem = experiment: physchem
Procedure: 25 mL of 0.2 M potassium hydrogen phthalate solution and 2.50 mL of 0.2 M sodium hydroxide solution were diluted to 100 mL using deionized water. The pH was adjusted as required, using either potassium hydrogen phthalate or sodium hydroxide solution.
25 mL of 0.2 M potassium phosphate monobasic solution and 11.20 mL of 0.2 M sodium hydroxide solution were diluted to 100 mL using deionized water. The pH was adjusted as required, using either potassium phosphate monobasic or sodium hydroxide solution.

[7] = Primary salt screen: stability testing of crystalline hits for 72 hours at 40° C./75% RH, post-stability XRPD and HPLC
Procedure: The primary salt screen was carried out on 35 mg scale in a glovebag under nitrogen using >3 equivalents of the counterions in the appropriate solvent. The contents of the vials were temperature cycled from 30 to 5° C. Any solids were isolated and analyzed by XRFD. • Approximately 35 mg of received material was weighed into each vial, in a glovebag under nitrogen. If amorphous material or counterion isolated, material was returned to vial and solids re-dissolved through addition of an appropriate solvent. Further temperature cycling was then employed, followed by anti-solvent addition and evaporation if required. Solids, if present, were isolated by centrifugation and analyzed by XRPD.

[8] = 40° C./75% RH, listed as fumarate
[9] = 40° C./75% RH, listed as tosylate

In the case of `O=C(O)c1ccc2ccccc2c1O` [1-Hydroxy-2-naphthoic], the LogP [1] is given as 3.29.

In the case of `O=C(O)CCCCC(=O)O` [Adipic], the LogP [1] is listed as 0.08.

In the case of `CC(C)CCC[C@@H](C)[C@H]1CC[C@H]2[C@@H]3CC=C4C[C@@H](OS(=O)(=O)O)CC[C@]4(C)[C@H]3CC[C@]12C` [Cholesteryl sulfate], the LogP [1] is listed as 4.45.

In the case of `O=C[C@H](O)[C@@H](O)[C@H](O)[C@H](O)C(=O)O` [D-Glucuronic acid], the LogP [1] is listed as −1.49.

For `C[C@H](CCC(=O)O)[C@H]1CC[C@H]2[C@@H]3CC[C@@H]4C[C@H](O)CC[C@]4(C)[C@H]3C[C@H](O)[C@]12C` [Deoxycholic acid], the “pKa 1” value [2] is given as 4.76.

For `CCS(=O)(=O)O` [Ethanesulfonic acid], the LogP [1] is listed as −1.36.

For `Cc1cc(O)cc(C)c1C[C@H](NC(=O)[C@H](N)CCCNC(=N)N)C(=O)N[C@@H](CCCCN)C(=O)N[C@@H](Cc1ccccc1)C(N)=O` [Fumarate Pattern 4] (H-[dR][Dmt]KF-NH2), the pH of slurry ([3]; 30 min, listed as fumarate salt) was 3.50, the “XRPD analysis of the post-slurry material” value ([3]; 20 h, listed as fumarate salt) was “changed to a new pattern (designated Pattern 5)” and the pH of slurry ([3]; 20 h, listed as fumarate salt) was 3.48. The “Purity by HPLC” value [4, 8] was 97.5%, the “decrease in purity after stability testing” value (shortened to “decrease in purity”) [4, 8] was “ca. 2.4%” and the “Post-stability XRPD analysis” value ([4]; 80° C.) was “loss of crystallinity”. The “decrease in purity” value ([4]; 80° C.) was “ca. 17%”, the “Purity by HPLC” value ([4]; 80° C., listed as Fumarate) was 83.0% and the “Purity by HPLC” value ([4]; ambient temperature and light) was 99.6%. The “Post-stability XRPD analysis” value ([4]; lower temperatures: 40° C./75% RH or ambient conditions) was “unchanged”, the “change in mass (DVS)” value ([5]; listed as fumarate salt) was “ca. 11.5%” and the “Post-DVS XRPD analysis” value ([5]; listed as fumarate salt) was “remained Pattern 4”. The “hygroscopicity by DVS analysis” value ([5]; listed as fumarate salt) was “hygroscopic”, the “XRPD analysis of the isolated solids after hydration studies” value (“XRPD analysis … after hydration studies” below) ([6]; aw=0.368 and 0.608, 20° C., 24 h) was “Pattern 3” and the “XRPD analysis … after hydration studies” value ([6]; aw=0.911, 20° C., 24 h) was “Pattern 5”. For the same molecule, the “Solid Form isolated after solubility study” value (“Solid Form isolated” for short) (physchem; buffer pH 1.2, 20° C., 24 h, listed as Fumarate) was “Fumaric acid”, the “Solid Form isolated” value (physchem; buffer pH 1.2, 20° C., 24 h, listed as fumarate salt) was “fumaric acid only” and the “Solid Form isolated” value (physchem; buffer pH 4.5, 20° C., 24 h, listed as fumarate salt) was “Pattern 5”. The “Solid Form isolated” value (physchem; buffer pH 6.8, 20° C., 24 h, listed as fumarate salt) was “No solid was isolated”.

For `N[C@@H](CCC(=O)O)C(=O)O` [L-Glutamic acid], the LogP [1] is listed as −1.43.

For `O=C(O)C[C@H](O)C(=O)O` [L-Malic], the LogP [1] is listed as −1.26.

For `CCCCCCCCCCCC(=O)O` [Lauric], the LogP [1] is given as 4.6 and the “pKa 1” value [2] is given as 4.90.

In the case of `O=C(O)/C=C\C(=O)O` [Maleic], the LogP [1] is listed as −0.01.

In the case of `O=C(O)C(=O)O` [Oxalic], the LogP [1] is given as −1.19.

For `Cc1cc(O)cc(C)c1C[C@H](NC(=O)[C@H](N)CCCNC(=N)N)C(=O)N[C@@H](CCCCN)C(=O)N[C@@H](Cc1ccccc1)C(N)=O` [Tosylate Pattern 1] (H-[dR][Dmt]KF-NH2), the pH of slurry ([3]; 30 min, listed as tosylate salt) was 2.58, the “XRPD analysis of the post-slurry material” value ([3]; 20 h, listed as tosylate salt) was “no change to the input Pattern 1 material” and the pH of slurry ([3]; 20 h, listed as tosylate salt) was 2.53. The “Post-stability XRPD analysis” value ([4]; 40° C./75% RH, 80° C. and ambient temperature and light) was “unchanged”, the “Purity by HPLC” value [4, 9] was 98.5% and the “decrease in purity” value [4, 9] was “ca. 1.3%”. For the same molecule, the “Purity by HPLC” value ([4]; 80° C., listed as Tosylate) was 99.4%, the “change in mass (DVS)” value ([5]; listed as tosylate salt) was “ca. 1.3%” and the “Post-DVS XRPD analysis” value ([5]; listed as tosylate salt) was “remained Pattern 1”. The “hygroscopicity by DVS analysis” value ([5]; listed as tosylate salt) was “slightly hygroscopic”, the “XRPD analysis of samples after stability testing” value ([7]; 40° C./75% RH, 72 hours) was “improved in crystallinity” and the “purity by HPLC analysis of samples after stability testing” value ([7]; 40° C./75% RH, 72 hours) was 80.6%. For the same molecule, the “Purity by HPLC (post-stability)” value ([7]; 72 hours at 40° C./75% RH) was 80.6, the “Same XRPD, post-stability” value ([7]; 72 hours at 40° C./75% RH, P1 = Pattern 1) was “yes” and the “XRPD analysis … after hydration studies” value ([6]; aw=0.368, 0.608 and 0.911, 20° C., 25 h) was “unchanged”. For the same molecule, the solubility thermodynamic at 24 h (physchem; aqueous buffer pH 1.2, pH 1.2, Concentration by HPLC (thermodynamic solubility), buffer pH 1.2, 20° C., 24 h) was 23.8 mg/mL, the solubility at 24 h (physchem; aqueous buffers pH 1.2, 4.5 and 6.8) was about 25 mg/mL and the “Solid Form isolated” value (physchem; buffer pH 1.2, 20° C., 24 h, listed as Tosylate) was “Pattern 1”. The “Solid Form isolated” value (physchem; buffer pH 4.5, 20° C., 24 h) was “Pattern 1”, the “Solid Form isolated” value (physchem; buffer pH 6.8, 20° C., 24 h) was “Pattern 1” and the “XRPD analysis of the isolated solids after thermodynamic solubility studies” value (physchem; each buffer solution (pH 1.2, 4.5, 6.8), 20° C., 24 h) was “unchanged”.

In the case of `Cc1ccc(S(=O)(=O)O)cc1` [p-Toluenesulfonic acid], the LogP [1] is given as 0.93.
